{
  "source": "patent US20170223976A1",
  "about": "“MODIFIED MILK POWDER CONTAINING 1,5-ANHYDRO-D-GLUCITOL” (NIHON STARCH CO., LTD., priority 2015, published 2017)",
  "key": {"CSH-1 gene": {"tested_on": "CSH-1 gene", "assay": "CSH-1 gene expression in placental trophoblastic cells, real-time RT-PCR", "assay_type": "cell-based, human", "conditions": "160 μg/mL 1,5-AG, after 72 hours", "protocol": "(§1) The influence upon these two genes (PSG-1 and CSH-1) of 1,5-AG was analyzed by a real-time RT-PCR method using placental trophoblastic cells. As a preliminary study, the expression level of PSG-1 was analyzed at three concentrations (1 μg/mL or less, 40 μg/mL and 160 μg/mL of 1,5-AG) and for three sampling times (3, 24 and 72 hours). A test was conducted by the following method.\n(§2) Human placental villous trophoblastic cells (ScienCell Research Laboratories)\nThe human placental villous trophoblastic cells were initiated in a T-75 flask by using a trophoblast medium (to be simply referred to as “medium” hereinafter) to be cultured in a CO2 incubator (5% CO2, 37° C., moistening). […] Then, the supernatant was removed by centrifugation (180 g, 5 minutes), a new medium was added to stir the cells, the number of the cells was counted by using a corpuscle calculating board, and a medium was used to achieve a target concentration (4.0×10^3 cells/100 μL). […]\n(§3) The PCR reaction was carried out under the conditions of 95° C.·30 sec−(95° C.·10 sec−60° C.·30 sec)×45 cycles−95° C.·15 sec−55° C.·15 sec−95° C.·15 sec, and the dissociation curve of the PCR product was obtained after the end of the PCR reaction. The relative expression level was calculated by the ? […]"}, "[1]": {"conditions": "cited from earlier work"}, "insulinoma cell lines": {"tested_on": "insulinoma cell lines", "conditions": "cited from earlier work"}, "[2]": {"tested_on": "type 2 diabetes model mice", "conditions": "mouse, in vivo; cited from earlier work"}, "PC12 cells": {"tested_on": "PC12 cells", "assay": "Fluorescence determination of number of living cells and amount of neurite outgrowth (neurite outgrowth staining kit)", "assay_type": "cell-based", "protocol": "A test was carried out at five concentrations (1.6, 8, 40, 200 and 1,000 μg/mL) of 1,5-AG. Stated more specifically, a 1,5-AG aqueous solution having a concentration of 100 mg/mL was diluted with water to prepare 100 times-concentrated solutions having concentrations of 0.16, 0.8, 4, 20 and 100 mg/mL. These 100 times-concentrated solutions were each added to a test medium in a ratio of 1/100 to achieve final concentrations of 1.6, 8, 40, 200 and 1,000 μg/mL and sterilized with a filter to be used in the test. As a negative control, water was added to a medium in a ratio of 1/100 and sterilized with a filter to be used in the test. As a positive control, a test medium containing a 100 ng/mL nerve growth factor (NGF) was used.\nA growth medium was used to adjust the cells to a concentration of 2.0×10^3 cells/100 μL/well, and the cells were scattered in a collagen-coated 96-well plate to be cultured in a CO2 incubator (5% CO2, 37° C., moistening) for 24 hours. After culture, the medium was replaced by a sample-containing test medium (100 μL), and the cells were cultured in a CO2 incubator for 96 hours. After the end of culture, an image of the cells in each well was taken with a phase difference microscope and used for the measurement of nuetrite outgrowth rate, and nuclei and cytoplasms were fluorescent dyed by using a neurite outgrowth staining kit to measure the number of living cells and the amount of neurite outgrowth. These procedures were carried out five times each.\nAfter the end of culture, the number of living cells and the amount of neurite outgrowth were determined by using a neurite outgrowth staining kit. Stated more specifically, after the medium was removed, 100 μL of a staining solution (prepared by diluting Cell Viability Indicator and Cell Membrane Stain attached to the kit with calcium magnesium-containing PBS 1,000 times) was added to each well to incubate the cells at 37° C. for 20 minutes. After incubation, the staining solution was removed, 100 μL of a background suppression solution (prepared by diluting the background suppression dye attached to the kit with calcium magnesium-containing PBS 100 times) was added to each well so as to measure fluorescence intensity with a micro plate reader (measurement of the number of living cells: excitation wavelength of 495 nm, fluorescence wavelength of 515 nm, measurement of the amount of neurite outgrowth: excitation wavelength of 555 nm, fluorescent wavelength of 565 nm)."}, "PSG-1 gene": {"tested_on": "PSG-1 gene", "assay": "PSG-1 gene expression in placental trophoblastic cells, real-time RT-PCR", "assay_type": "cell-based, human", "conditions": "for expression level of PSG-1 gene relative to non-added section: after 72 hours", "protocol": "as §1, §2\nThe human placental villous trophoblastic cells were initiated in a T-75 flask by using a trophoblast medium (to be simply referred to as “medium” hereinafter) to be cultured in a CO2 incubator (5% CO2, 37° C., moistening). Medium exchange was carried out every 2 days, the cells were collected when 80% confluence was reached, and cells having a passage number of 2 were used in this test. Stated more specifically, after the cells were washed with D-PBS (−), the cells were separated by using 0.25% trypsin-EDTA, and a medium was added to neutralize trypsin. Then, the supernatant was removed by centrifugation (180 g, 5 minutes), a new medium was added to stir the cells, the number of the cells was counted by using a corpuscle calculating board, and a medium was used to achieve a target concentration (4.0×10^3 cells/100 μL).\nThe sample was added to mediums to achieve 1,5-AG final concentrations of 40 μg/mL and 160 μg/mL. When the final concentration was not more than 1 μg/mL, 1,5-AG was not added. Stated more specifically, a 1,5-AG aqueous solution having a concentration of 40 mg/mL was added to a test medium in a ratio of 1/1000 or 1/250 to achieve a final concentration of 40 μg/mL or 160 μg/mL, and the 1,5-AG solution was sterilized with a filter to be used in the test. […]\nas §3"}, "[3]": {"conditions": "excessive amount of 1,5-AG taken as food"}},
  "data": [
    {"compound": "OC[C@H]1OC[C@H](O)[C@@H](O)[C@@H]1O", "note": "[1,5-AG, 1,5-anhydro-D-glucitol]", "values": [
      {"measurement": "expression level of CSH-1 gene relative to non-added section", "setting": "CSH-1 gene", "value": 0.92, "unit": "time"},
      {"measurement": "temporary rise of the concentration of 1,5-AG in the blood", "setting": "[1]; [3]", "value": "about 100 times"},
      {"measurement": "time for the 1,5-AG level in the blood to return to the original level", "setting": "[1]; [3]", "value": "about 24 hours"},
      {"measurement": "time for the 1,5-AG level in the blood to return to the original value", "setting": "[1]; ingested temporarily, for example 20 g, eliminated through urine", "value": "about 24 hours"},
      {"measurement": "secretion of insulin", "setting": "insulinoma cell lines", "value": "promotes the secretion of insulin"},
      {"measurement": "anti-inflammatory effect", "setting": "[2]", "value": "anti-inflammatory effect"},
      {"measurement": "amount of neurite outgrowth as compared with the non-added section", "setting": "PC12 cells; 8 μg/mL section", "value": 113.4, "unit": "%"},
      {"measurement": "amount of neurite outgrowth as compared with the non-added section", "setting": "PC12 cells; 40 μg/mL section", "value": 113.3, "unit": "%"},
      {"measurement": "number of living cells", "setting": "PC12 cells; all test sections versus negative control, 96 hours", "value": "about the same as that of a negative control"},
      {"measurement": "expression level of PSG-1 gene relative to non-added section", "setting": "PSG-1 gene; 40 μg/mL 1,5-AG", "value": 1.54, "unit": "times"},
      {"measurement": "expression level of PSG-1 gene relative to non-added section", "setting": "PSG-1 gene; 160 μg/mL 1,5-AG", "value": 1.62, "unit": "times"},
      {"measurement": "expression level of PSG-1 gene over treatment time", "setting": "PSG-1 gene; 1,5-AG added sections, 3, 24 and 72 hours", "value": "rose in proportion to the sample treatment time"}
    ]}
  ]
}
